Results on 24 molecules are retold here after US8735386B2, “Aminopyrazoloquinazolines” (Boehringer Ingelheim International GmbH, priority 2010, dated 2014).

As usually defined, the IC50 is the concentration at which inhibition is half-maximal. The EC50 is the midpoint of the concentration-response curve.

Chain of cytoplasmic kinase domain of human IGF-1R (IGF-1R-GST) (P08069 964-1367 limits assumed): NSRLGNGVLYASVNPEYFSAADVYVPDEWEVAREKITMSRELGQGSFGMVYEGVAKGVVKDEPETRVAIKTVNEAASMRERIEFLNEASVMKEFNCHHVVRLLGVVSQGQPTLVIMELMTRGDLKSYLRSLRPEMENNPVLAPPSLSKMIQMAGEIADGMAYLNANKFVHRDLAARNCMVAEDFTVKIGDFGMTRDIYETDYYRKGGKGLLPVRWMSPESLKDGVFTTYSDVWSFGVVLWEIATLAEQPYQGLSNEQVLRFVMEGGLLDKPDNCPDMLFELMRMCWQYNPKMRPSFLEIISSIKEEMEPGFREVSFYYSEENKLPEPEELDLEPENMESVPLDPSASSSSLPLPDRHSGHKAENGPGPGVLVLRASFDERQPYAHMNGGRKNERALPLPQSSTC

The first assay concerns the target cytoplasmic kinase domain of human IGF-1R (IGF-1R-GST) (Homo sapiens (Human), UniProt P08069). Briefly: Insulin-like growth factor-1 receptor (IGF-1R)-kinase assay (DELFIA). The settings on record: inhibition of IGF-1R-kinase activity, read-out: IGF1R IC50. In kind it is biochemical. How it is done: Insulin-Like Growth Factor-1 Receptor (IGF-1R)-Kinase Assay
The kinase activity is measured by DELFIA® assay (dissociation-enhanced lanthanide fluorescence immunoassay, Perkin Elmer). […] Enzyme activity is measured in the presence of substances and a control substance. Poly-glutamate-tyrosine peptide (pEY, Sigma Aldrich) and biotinylated pEY (bio-pEY) are used as reaction substrates.
After 40 min at RT the reactions are stopped with 50 μL of stop solution (250 mM EDTA, 20 mM HEPES pH 7.4). 90 μL from each reaction are transferred onto streptavidin-coated 96-well plates. After 120 min incubation at RT the plates are washed three times with 200 μL phosphate-buffered saline (PBS) per well. The plates are incubated for 60 min with 100 μL of europium-coupled antibody against phospho-tyrosine (diluted 1/2000 in Perkin Elmer DELFIA assay buffer) per well. The plates are washed three times with 200 μL per well of DELFIA washing buffer. 100 μL DELFIA Enhancement Solution (Perkin Elmer) is added to each well, and the plates are incubated for 10 min. The fluorescence signal is measured with a Wallac Victor TRF Reader. IC50 values for the inhibition of the IGF-1R-kinase activity are calculated using the programmes Fifty (Version 2) and GraphPad (Version 3.0).
Consider `CCOc1cc(C(=O)NC)ccc1Nc1ncc2c(n1)-c1c(nn(C)c1-c1ccccc1)CC2` [III-3], for which the IC50 was found to be 92 nM.

The next assay relates to TC-71 (Ewing's sarcoma) cells. In words: cells. The note with it: Homo sapiens, TC-71, 72 h, read-out: EC50 on TC-71 cells. The procedure:
Cell Proliferation Assays
Published scientific data has described that interference with the Insulin-like Growth Factor-1 Receptor (IGF-1R) signaling pathway reduces the proliferation of TC-71 cells. Therefore TC-71 cells served as a positive control cell line for monitoring the activity of compounds against IGF-1R-mediated cell proliferation.
2000 TC-71 cells or 1000 HCT 116 cells were seeded per well in 180 μL IMDM+10% foetal calf serum (FCS)+penicillin/streptomycin into 96-well microtitre plates. The plates were placed in a cell culture incubator (37° C. in a humidified atmosphere of 95% […]/5 CO2) overnight. The following day, serial dilutions of compounds, prepared in duplicates, were transferred onto the cell layers (controls without compound). The cells were cultivated for a further 72 h in the cell culture incubator. 20 μL of Alamar Bluet™ (Serotec Ltd, Düsseldorf, Germany) was added to each well and the plates incubated for 7 h in the cell culture incubator.
On to `COC(=O)c1ccc(Nc2ncc3c(n2)-c2c(nn(C)c2-c2ccccc2Cl)CC3)c(OC)c1` [Compound I-3], for which the EC50 was under 3000 nM.
For `CC1Cc2nn(C)c(Cc3ccccc3Cl)c2-c2nc(Nc3cnn(C4CCN(C5CCOCC5)CC4)c3)ncc21` (stereo not drawn) [IV-9a], the concentration for a half-maximal effect (EC50) is under 3000 nM.
Turning to `Cc1cc(Nc2ncc3c(n2)-c2c(nn(C)c2-c2ccccc2Cl)CC3)nn1C` [Compound I-109], the EC50 is under 3000 nM.
With `COc1cc(C(=O)O)ccc1Nc1ncc2c(n1)-c1c(nn(C)c1-c1ccccc1Cl)CC2` [II-18], the EC50 is under 3000 nM.
Consider `CC1Cc2nn(C)c(Cc3ccccc3Cl)c2-c2nc(Nc3cnn(C4CCNCC4)c3)ncc21` (racemic) [IV-2a], for which the EC50 is under 3000 nM.
`CC1Cc2nn(C)c(-c3ccccc3Cl)c2-c2nc(Nc3ccn(C(C)C)n3)ncc21` (racemic) [Compound I-40, 9-(2-chlorophenyl)-5,8-dimethyl-N-(1-propane-2-ylpyrazol-3-yl)-5,6-dihydropyrazolo[3,4-h]quinazolin-2-amine]: the EC50 is under 3000 nM.
Same read-out and setting: then `COc1cc(C(=O)NC2CC(N3CCN(C)CC3)C2)ccc1Nc1ncc2c(n1)-c1c(nn(C)c1-c1ccccc1Cl)CC2` (stereo not drawn) [III-38], with under 3000 nM; and `CCn1ccc(Nc2ncc3c(n2)-c2c(nn(C)c2-c2ccccc2Cl)CC3)n1` [Compound I-30, 9-(2-chlorophenyl)-N-(1-ethylpyrazol-3-yl)-8-methyl-5,6-dihydropyrazolo[3,4-h]quinazolin-2-amine], with under 3000 nM.
In the case of `Cc1ccsc1-c1c2c(nn1C)CCc1cnc(Nc3ccn(CCN(C)C)n3)nc1-2` [Compound I-189, N-[1-(2-dimethylaminoethyl)pyrazol-3-yl]-8-methyl-9-(3-methylthiophen-2-yl)-5,6-dihydropyrazolo[3,4-h]quinazolin-2-amine], the EC50 was under 3000 nM.
Regarding `CC1Cc2nn(C)c(-c3ccccc3Cl)c2-c2nc(Nc3ccn(C)n3)ncc21` (racemic) [Compound I-42, 9-(2-chlorophenyl)-5,8-dimethyl-N-(1-methylpyrazol-3-yl)-5,6-dihydropyrazolo[3,4-h]quinazolin-2-amine], the EC50 was under 3000 nM.
Still for that read-out and setting: then `CCn1ccc(Nc2ncc3c(n2)-c2c(nn(C)c2-c2cccc(OC)c2)CC3)n1` [Compound I-293], with under 3000 nM.
As to `CC(=O)N1CCC(N2CCC(n3cc(Nc4ncc5c(n4)-c4c(nn(C)c4Cc4ccccc4Cl)CC5C)cn3)CC2)CC1` (stereo not drawn) [IV-9b], the 50% effective concentration (EC50) was under 3000 nM.
Consider `COc1cc(N2CCN(C)CC2)ccc1Nc1ncc2c(n1)-c1c(nn(C)c1-c1ccccc1Cl)CC2C` (racemic) [Compound I-97, 9-(2-chlorophenyl)-N-[2-methoxy-4-(4-methylpiperazin-1-yl)phenyl]-5,8-dimethyl-5,6-dihydropyrazolo[3,4-h]quinazolin-2-amine], for which the EC50 was under 3000 nM.
For `Cc1cccc(-c2c3c(nn2C)CCc2cnc(Nc4ccccc4)nc2-3)c1Cl` [Compound I-147], the EC50 was under 3000 nM.
As for `Cn1nccc1Nc1ncc2c(n1)-c1c(nn(C)c1-c1ccccc1Cl)CC2` [Compound I-23], the concentration for a half-maximal effect (EC50) is under 3000 nM.
Turning to `COCCn1ccc(Nc2ncc3c(n2)-c2c(nn(C)c2-c2ccc(Cl)cc2)CC3)n1` [Compound I-171, 9-(4-chlorophenyl)-N-[1-(2-methoxyethyl)pyrazol-3-yl]-8-methyl-5,6-dihydropyrazolo[3,4-h]quinazolin-2-amine], the EC50 is under 3000 nM.
`COc1cc(C(=O)NC2CCN(C)CC2)ccc1Nc1ncc2c(n1)-c1c(nn(C)c1Cc1c(Cl)cccc1Cl)CC2` [III-107]: the EC50 is under 3000 nM.
On the same count and under the same terms, then `COc1cc(C(=O)NC2CCN(C)CC2)ccc1Nc1ncc2c(n1)-c1c(nn(C)c1-c1sccc1C)CC2` [III-105], with under 3000 nM.
Regarding `CC1Cc2nn(C)c(Cc3ccccc3Cl)c2-c2nc(Nc3cnn(C4CCN(CCO)CC4)c3)ncc21` (stereo not drawn) [IV-9c], the 50% effective concentration (EC50) was under 3000 nM.
In the case of `COc1cc(C(=O)NC2CCN(C)CC2)ccc1Nc1ncc2c(n1)-c1c(nn(C)c1-c1ccccc1Cl)CC2` [Compound I-112, 4-[[9-(2-chlorophenyl)-8-methyl-5,6-dihydropyrazolo[3,4-h]quinazolin-2-yl]amino]-3-methoxy-N-(1-methylpiperidin-4-yl)benzamide], the EC50 was under 3000 nM.
As for `COc1cc(C(=O)NC2CCN(C)CC2)ccc1Nc1ncc2c(n1)-c1c(nn(C)c1-c1ccccc1Cl)CC2C` (racemic) [Compound I-157, 4-[[9-(2-chlorophenyl)-5,8-dimethyl-5,6-dihydropyrazolo[3,4-h]quinazolin-2-yl]amino]-3-methoxy-N-(1-methylpiperidin-4-yl)benzamide], the EC50 was under 3000 nM.
For the molecule `Cc1cc(Nc2ncc3c(n2)-c2c(nn(C)c2-c2ccc(OC(F)F)cc2)CC3)nn1C` [Compound I-294], the concentration for a half-maximal effect (EC50) was under 3000 nM.
For `CCn1ccc(Nc2ncc3c(n2)-c2c(nn(C)c2-c2sccc2C)CC3)n1` [Compound I-172], the EC50 was under 3000 nM.
